Laboratory results published in ChEMBL document CHEMBL6109051, “Structure guided modification of 2-chloro-5-(ethyl-phenyl-sulfamoyl)-N-[2-(2-oxo-pyrrolidin-1-yl)-phenyl]-benzamide to afford selective inhibitors of Cryptosporidium parvum N-myristoyltransferase” (Bioorg Med Chem Lett, 2025).

Legend:
[1] = Selectivity index, ratio of IC50 for human NMT1 to IC50 for Cryptosporidium parvum NMT
Cryptosporidium parvum = assay: Antiparasitic activity against Cryptosporidium parvum assessed as inhibition of parasitic growth; format: functional, organism-based
[2] = Inhibition of Cryptosporidium parvum NMT
[3] = biological target: T1, Glycylpeptide N-tetradecanoyltransferase 1 (Homo sapiens, UniProt P30419); assay: Inhibition of human NMT1
T1 sequence (P30419 whole entry): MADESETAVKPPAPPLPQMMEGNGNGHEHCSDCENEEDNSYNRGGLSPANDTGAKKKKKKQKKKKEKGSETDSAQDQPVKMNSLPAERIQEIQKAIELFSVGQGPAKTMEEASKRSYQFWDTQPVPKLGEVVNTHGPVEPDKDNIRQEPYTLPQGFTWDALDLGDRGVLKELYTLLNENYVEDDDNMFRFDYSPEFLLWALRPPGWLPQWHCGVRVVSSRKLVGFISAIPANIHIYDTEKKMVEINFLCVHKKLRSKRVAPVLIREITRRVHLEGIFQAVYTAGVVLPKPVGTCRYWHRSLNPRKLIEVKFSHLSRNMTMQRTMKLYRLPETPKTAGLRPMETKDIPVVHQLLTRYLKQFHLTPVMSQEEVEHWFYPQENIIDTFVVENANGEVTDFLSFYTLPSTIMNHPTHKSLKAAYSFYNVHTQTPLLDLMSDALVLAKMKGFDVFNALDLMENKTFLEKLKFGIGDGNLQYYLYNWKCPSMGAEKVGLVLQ

Row | SMILES | Ratio IC50 [1] | IC50 [2] [µM] | IC50 [3] [µM] | EC50 (Cryptosporidium parvum) [µM]
1 | CCN(c1ccccc1)S(=O)(=O)c1ccc(Cl)c(C(=O)Nc2ccccc2N2CCCC2=O)c1 | 1.4 | 3.5 | – | 3.5
2 | CCN(c1ccccc1)S(=O)(=O)c1ccc(Cl)c(C(=O)Nc2ccccc2N2CCN(CC3CC3)C2=O)c1 | > 2 | 52.8 | > 125 | > 20
3 | CCN1CCN(c2ccccc2NC(=O)c2cc(S(=O)(=O)N(CC)c3ccccc3)ccc2Cl)C1=O | > 44 | 2.8 | > 125 | 16.4
4 | CCN(c1ccccc1)S(=O)(=O)c1ccc(Cl)c(C(=O)Nc2ccccc2N2CCC(C)(C)C2=O)c1 | > 9 | 13.8 | > 125 | > 20
5 | CCN(c1ccccc1)S(=O)(=O)c1ccc(Cl)c(C(=O)Nc2ccccc2N2CC(C)(C)CC2=O)c1 | – | > 125 | – | > 20
6 | CCN(c1ccccc1)S(=O)(=O)c1ccc(Cl)c(C(=O)Nc2ccccc2N2C(=O)CC(C)(C)C2=O)c1 | – | > 125 | – | > 20

Second part, led by results:

Row | Ratio IC50 [1] | IC50 [2] [µM] | IC50 [3] [µM] | SMILES | EC50 (Cryptosporidium parvum) [µM]
7 | 4.6 | 2.5 | 11.4 | CCN(c1ccccc1)S(=O)(=O)c1ccc(Cl)c(C(=O)Nc2ccccc2N2CCN(C)C2=O)c1 | 6.9
8 | – | > 125 | – | CCN(c1ccccc1)S(=O)(=O)c1ccc(Cl)c(C(=O)Nc2ccccc2N2CC(CC)(CC)CC2=O)c1 | > 20
9 | – | > 125 | – | CCN(c1ccccc1)S(=O)(=O)c1ccc(Cl)c(C(=O)Nc2ccccc2N2CCN(C(C)C)C2=O)c1 | > 20
